Experimental findings from US12606540B2, “Triazolone compound” (MEDSHINE DISCOVERY INC., priority 2020, dated 2026) are described below.

The subject of data set [1] is MDR1 (P-glycoprotein). Briefly: Permeability evaluation on MDR1-MDCK II cell line. As to conditions: dog, MDCK-MDR1, pH 7.4.
The nature of data set [2]: Pharmacokinetic evaluation in mice (IV and PO). It is filed as in vivo, female Balb/c mice. The conditions noted are these: for MRT last: read-out: MRT0-last. As to the method:
Experiment process: 0.04 mg/mL of a clarified solution of the test compound in 5% DMSO/10% Solutol solution/85% water was injected into female Balb/c mice (overnight fasting, 7-9 weeks of age) via tail vein, with dosage of 0.2 mg/kg. 0.1 mg/mL of the test compound in 5% DMSO/10% Solutol solution/0.2% Tween80/84.8% water was administered by gavage to female Balb/c mice (overnight fasting, 7-9 weeks of age), with dosage of 1 mg/kg. About 30 μL of blood was collected from the jugular vein at 0.0833, 0.25, 0.5, 1.0, 2.0, 4.0, 8.0, 10 and 24 h and from the tail vein at 0.25, 0.5, 1.0, 2.0, 4.0, 8.0 and 24 h after administration for both groups of animals, and were placed in anticoagulation tubes with EDTA-K2, and the blood was separated by centrifugation to obtain plasma. Plasma concentrations were detected by LC-MS/MS, and relevant pharmacokinetic parameters were calculated using WinNonlin™ Version 6.3 (Pharsight, Mountain View, CA) pharmacokinetic software with a non-compartmental model linear logarithmic trapezoid method.

Data set [3] deals with influenza virus A/Weiss/43 (H1N1). Nature of the data set: Influenza virus cytopathic effect (CPE) experiment in MDCK cells. It is filed as cell-based. As to conditions: unidentified influenza virus, H1N1, 120 h, 5 days incubation, CCK8.
The target in data set [4] is DHODH enzyme (Homo sapiens, UniProt Q02127). Nature of the data set: DHODH enzyme inhibitory activity in vitro (resazurin fluorescence). In kind it is biochemical. The conditions noted are these: 5 nM DHODH, 15 μM L-DHO, 80 μM Resazurin. From the text:
The DHODH inhibitory activity of the compounds was detected by the following experimental method, and the experimental results are as shown in Table 1.
DHODH uses flavin mononucleotide FMN to catalyze the oxidation of dihydrooratic acid DHO to produce oratic acid, while the re-oxidation of FMN requires the participation of coenzyme CoQ. In the experiment of detecting the DHODH enzyme activity, CoQ was replaced by Resazurin dye as the final electron acceptor in the enzyme activity reaction. Resazurin solution is blue, and the resorufin generated after reduction has red fluorescence, and the fluorescence signal can be detected under the 535 nm of excitation wavelength and the 590 nm of emission wavelength. The components of the reaction buffer used in the experiment were 100 mM Hepes pH 7.0, 150 mM NaCl, 0.3% CHAPS, 0.5 mg/mL BSA, 0.1 μM FMN and 1% DMSO. The final concentration of DHODH enzyme in the reaction system was 5 nM, and the final concentration of substrate L-DHO was 15 μM, the final concentration of indicator Resazurin was 80 μM. The components of the reaction stop buffer were 100 mM Hepes pH 7.0 and 5 mM Orotate. The specific method was as follows: 2-fold final concentration of the DHODH enzyme solution was mixed with the compound, incubated at room temperature for 20 min, 2-fold final concentration of the substrate mixture solution of L-DHO and resazurin was added and reacted, incubated at room temperature away from light for 45 min. Then the reaction was stopped by adding 2-fold final concentration of the reaction stop buffer to the reaction system, and incubated at room temperature for 10 min, the fluorescence signal of the reaction system was detected with EnVision under the condition of Ex/Em=535/590 nm.
In general terms: Resazurin is reduced to fluorescent resorufin, in cell work by metabolically active cells.

Data set [5] concerns human peripheral blood mononuclear cells. Nature of the data set: Proliferation inhibition of peripheral blood mononuclear cells (flow cytometry). In kind it is cell-based. As to conditions: PBMC, PHA-M 5 μg/mL stimulation, 48 hours. As to the method:
Flow cytometry was used to detect cell proliferation of human peripheral blood mononuclear cells.
• Cell complete medium: 445 mL of RPMI1640 cell culture+50 mL of fetal bovine serum+5 mL of double antibody • Buffer 1: 9.9 mL of phosphate buffer+0.1 mL of 10% bovine serum protein • Buffer 2: 10 mL of fetal bovine serum+490 mL of phosphate buffer 3.2 Cell Thawing • 3.2.1 20 mL of cell complete medium was added to a 50 mL of centrifuge tube and pre-heated in a 37° C. water bath for 5 minutes; • 3.2.2 the cell cryotubes were removed from the liquid nitrogen storage tank and placed on dry ice for 5-10 minutes to allow the liquid nitrogen to evaporate fully; • 3.2.3 the cell cryotubes were clamped with forceps and placed in the water bath, and shaken gently to thaw the frozen cells quickly; • 3.2.4 the thawed cells were transferred to the pre-heated cell complete medium with a pipette, centrifuged at 350 g for 5 min, then the supernatant was discarded, and the cells was resuspended by adding 10 mL of phosphate buffer; • 3.2.5 counting by cell counter, and cell viability and cell count were recorded. 3.3 Cell Labeling • 3.3.1 Cell proliferation labeling solution (CellTrace™ Violet, 1:1000 dilution) was prepared • 3.3.2 the above mixture was centrifuged at 350 g for 5 minutes, and the supernatant was discarded, then the cells (20×10^6/mL) were resuspended by adding Buffer 1, and the resuspended cells were gently blown by pipette, and an equal volume of cell proliferation labeling solution (prepared in 3.3.1) was added, and gently blown well by pipette; • 3.3.3 incubating in a 5% CO2, 37° C. cell incubator for 18 minutes; • 3.3.4 the 5-fold volume of cell complete medium was added and leaved at room temperature for 5 minutes to terminate the staining reaction; • 3.3.5 the above mixture was centrifuged at 350 g for 5 minutes, and the supernatant was discarded, then the cells were resuspended by adding 10 mL of cell complete medium, counted by cell counter, and cell viability and cell count were recorded; • 3.3.6 the above mixture was centrifuged at 350 g for 5 minutes, and the supernatant was discarded, then the corresponding volume of cell complete medium was added according to the cell counting results, and the density of the resuspended cells was 2×10^6/mL and was to be used. 3.4 Cell Proliferation Stimulation • 3.4.1 50 μL/well prepared cell suspension (1×10^5 cells/well), 50 μL of 4×PHA-M (the final concentration is 5 μg/mL), 50 μL of 4×test compound, 50 μL of cell complete medium were added to the wells of 96-well cell culture plate, and the corresponding control group was set up; (total volume of the reaction system is 200 μL) • 3.4.2 the cell culture plate was placed and incubated in a 5% CO2, 37° C. cell incubator for 48 hours. 3.5 Cell Proliferation Detection • 3.5.1 the above mixture was centrifuged at 350 g for 5 minutes and the supernatant was transferred to a new cell culture plate and stored at −80° C.; • 3.5.2 200 μL of Buffer 2 was add to the wells of the culture plate, and the above mixture was centrifuged at 350 g and the supernatant was discarded; • 3.5.3 cell dead or living staining solution (7-AAD, 1:100 dilution) was prepared with Buffer 2; • 3.5.4 100 μL/well of dead or living staining solution was added, and gently blown and mixed well by pipette, and stained at room temperature for 10 min; • 3.5.5 cell proliferation was detected by flow cytometry analyzer and analyzed by Flowjo software.

The mark [6] stands for this setting: female, Balb/c, mouse, plasma, IV 0.2 mg/kg.
The mark [7] stands for this setting: female, Balb/c, mouse, plasma, PO 1 mg/kg.

Where two headings read alike, the source gives them in different places.

DHODH enzyme, sequence (Q02127 whole entry): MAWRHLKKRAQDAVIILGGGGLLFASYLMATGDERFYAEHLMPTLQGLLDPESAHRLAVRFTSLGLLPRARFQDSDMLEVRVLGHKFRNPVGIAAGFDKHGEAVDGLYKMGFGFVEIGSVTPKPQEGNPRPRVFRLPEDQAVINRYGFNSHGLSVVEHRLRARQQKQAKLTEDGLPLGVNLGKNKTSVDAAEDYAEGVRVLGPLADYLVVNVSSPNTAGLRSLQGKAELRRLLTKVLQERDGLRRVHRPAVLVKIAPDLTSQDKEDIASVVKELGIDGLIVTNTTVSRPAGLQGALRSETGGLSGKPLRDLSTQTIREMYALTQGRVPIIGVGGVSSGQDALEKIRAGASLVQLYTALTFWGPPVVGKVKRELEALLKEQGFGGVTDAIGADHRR

What is called Papp A→B is the apparent permeability from the apical to the basolateral side of a cell layer. Lower therefore signals slow passage. As usually defined, the Papp B→A is the apparent permeability from the basolateral to the apical side of a cell layer. As a reminder, the Papp is a coefficient for how fast a substance crosses the barrier. Broadly, the efflux ratio is a quotient of directional permeabilities that is used to spot active efflux. As usually defined, the AUC(0-inf) is the area under the concentration-time curve extrapolated to infinity. As a reminder, the AUC(0-t) is exposure summed from dosing to a finite time, without extrapolation to infinity. A high value points to high exposure. What is called half-life is the time in which the quantity being followed falls by half. As usually defined, the Tmax is the time from dosing to the highest level. What is called Cmax is the peak of the concentration-time curve. For orientation: EC50 means the concentration at which the effect is half-maximal. What is called IC50 is the concentration at which inhibition is half-maximal. Read a low IC50 as higher potency. On to `CCn1c(CO)nn(-c2cc(O[C@@H](C)C(F)(F)F)c(/C(F)=C/c3cccnc3Cl)cc2F)c1=O` [Compound 26], for which, in data set [1], the Papp A→B at 150 min, 2 μM came out at 8.59 ×10⁻⁶ cm/s; the Papp B→A at 150 min, 2 μM was found to be 7.76 ×10⁻⁶ cm/s; the Papp at 150 min, 2 μM was over 5.5 ×10⁻⁶ cm/s; the efflux ratio at 150 min, 2 μM came to 0.9. In data set [2] (IV 0.2 mg/kg), this molecule displayed a Tlast of 24 h. In data set [2] (PO 1 mg/kg), this molecule showed an F of 80.2%. Also, in data set [2] (setting [6]), the AUC(0-inf) amounted to 2.86 µM·h, the AUC(0-t) amounted to 2.29 µM·h, the clearance was determined as 2.32 mL/min/kg and the half-life is 9.68 h. For the same molecule, in data set [2] (setting [6]), the MRT last worked out at 8.04 h. For the same molecule, in data set [2] (female, Balb/c, mouse, plasma, IV 0.2 mg/kg, read-out: VdSS), the Vd is 1.93 L/kg. Moreover, in data set [2] (setting [7]), the total exposure AUC(0-inf) came to 13 µM·h, the AUC(0-t) turned out to be 9.2 µM·h, the Tmax is 1 h and the half-life is 14.8 h. In addition, in data set [2] (setting [7]), the MRT last turned out to be 8.9 h. Moreover, the C0 in data set [2] (female, Balb/c, mouse, IV 0.2 mg/kg, plasma) was 451 nM. Further, the highest level in data set [2] (female, Balb/c, mouse, PO 1 mg/kg, plasma) (Cmax) was 872 nM. The EC50 in data set [3] is 2.4 nM. The molecule also returned an IC50 in data set [4] of 1.5 nM. Besides, in data set [5], it took 4.6 nM to reach half-maximal inhibition (IC50).
